# Assay results from patent US20080090788A1, “Chemical Compounds” (priority 2005, published 2008).
# Test system: NF-kB
# Experiment: NF-kB luciferase reporter activity in LPS-stimulated U937-kBluc cells
# Format: cell-based, human
# Settings: for IC50: Homo sapiens, U937-kBluc cells, LPS 0.3 μg/ml, 6 hours, mean of duplicate determinations ±SD, read-out: IC50 for inhibition of LPS-induced NF-kB activity
# Protocol: U937-kBluc cells were cultured in a 96 well plate (2×10^4 cells in 100 μl in each well) and stimulated with 0.3 μg/ml LPS (lipopolysaccaride; Sigma Aldrich). After 6 hours, cells were collected and luciferase activity determined using the luclite reagent (Perkin Elmer UK, Beaconsfield, UK) and a Packard TopCount (Perkin Elmer), as described by the manufacturer. To determine the effect of SFZ and analogues, various concentrations of each compound or an equivalent amount of DMSO as a solvent control were added 1 hour prior to addition of LPS. Each determination was made in triplicate. A cell line containing an NF-kB reporter construct was used to determine the effects of SFZ analogues on NF-kB activity. Cells were treated with LPS to induce NF-kB activity in the presence or absence of each compound, or DMSO as a solvent control, and luciferase activity analysed as a measure of NF-kB dependent transcription (FIG. 1). […] U937-kBluc cells were treated with LPS to activate NF-kB in the presence of increasing concentrations of SFZ, derivatives (3a-f), or DMSO as a solvent control. For each concentration of compound, the percentage inhibition of luciferase activity relative to cells treated with an equivalent amount of DMSO was calculated. (A) Representative dose response experiment (♦, 3a; ▪, SFZ). Each data point is the mean of triplicate samples (±SEM). (B) Detailed dose response assays were performed for compounds which gave >50% inhibition at 2 mM. The mean IC50 value (±SD) for inhibition of LPS-induced NF-kB activity is derived from 2 independent experiments, each performed in triplicate.
IC50,SMILES,"improved inhibitory activity relative to SFZ (NF-kB inhibition, LPS treated U937 cells)"
150 ± 27 µM,"COc1ccc(CNS(=O)(=O)c2ccc(/N=N/c3ccc(O)c(C(=O)O)c3)cc2)cc1 [Compound 3a, 2-hydroxy-5-[4-(4-methoxy-benzylsulfamoyl)-phenylazo]-benzoic acid]",7 fold
89 ± 26 µM,"O=C(O)c1cc(/N=N/c2ccc(S(=O)(=O)NCc3ccc(C(F)(F)F)cc3)cc2)ccc1O [Compound 3f, 2-hydroxy-5-[4-(4-trifluoromethyl-benzylsulfamoyl)-phenylazo]-benzoic acid]",
127 ± 19 µM,"Cc1cc(/N=N/c2ccc(S(=O)(=O)NCc3ccc(C(F)(F)F)cc3)cc2)cc(C(=O)O)c1O [Compound 3e, 2-hydroxy-3-methyl-5-[4-(4-trifluoromethyl-benzylsulfamoyl)-phenylazo]-benzoic acid]",
1190 ± 96 µM,"O=C(O)c1cc(/N=N/c2ccc(S(=O)(=O)Nc3ccccn3)cc2)ccc1O [SFZ, Sulfasalazine, reference compound]",
